From patent US11319298B2 (Merck Sharp & Dohme Corp., priority 2016, dated 2022)

What follows are molecules tested against T1, human M4 muscarinic acetylcholine receptor (Homo sapiens, UniProt P08173) (assay: human FLIPR-based M4 PAM assay, CHO-K1 cells stably transfected with human M4 receptor and chimeric G-protein Gαqi5). Conditions: inflection point (IP) of dose response curve; acetylcholine added at 20% of maximum response; CHO-K1 human M4/Gαqi5, FLIPR Tetra.
T1 construct: expressed in transfected cells; host or cells: CHO-K1
T1 sequence (P08173 1-479): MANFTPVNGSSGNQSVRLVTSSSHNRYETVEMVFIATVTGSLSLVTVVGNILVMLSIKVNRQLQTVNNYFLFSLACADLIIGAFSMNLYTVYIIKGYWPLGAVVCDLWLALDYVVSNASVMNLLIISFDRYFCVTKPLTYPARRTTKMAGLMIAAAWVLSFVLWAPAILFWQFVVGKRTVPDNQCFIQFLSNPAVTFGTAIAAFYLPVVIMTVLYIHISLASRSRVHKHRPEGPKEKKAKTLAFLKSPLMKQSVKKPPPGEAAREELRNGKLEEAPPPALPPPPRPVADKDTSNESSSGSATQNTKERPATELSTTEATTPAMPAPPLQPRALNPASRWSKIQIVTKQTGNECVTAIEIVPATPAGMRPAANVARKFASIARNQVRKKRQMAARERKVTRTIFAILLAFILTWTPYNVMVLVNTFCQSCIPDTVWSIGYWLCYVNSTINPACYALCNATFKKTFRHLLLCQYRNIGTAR
Assay type: cell-based
Experimental: In a typical experiment the M4 muscarinic acetylcholine receptor modulating activity of the compounds of the present invention was determined in accordance with the following experimental method. CHO-K1 cells stably transfected with human M4 receptor and chimeric G-protein Gαqi5 (Coward P, et al., Analytical Biochemistry, 270:242-248 (1999)) are thawed from liquid N2 storage, resuspended in growth medium, plated in black, clear bottom 384 well plates, and incubated 16-20 hours at 37° C., 5% CO2. On the day of assay, growth medium is removed, the cells are washed 2 times with wash buffer, and cells are incubated in dye loading buffer at 37° C., 5% CO2 for ˜1 hour. Following dye loading the cell plates are placed in a FLIPR Tetra instrument and while monitoring dye fluorescence (excitation […]), 10 uL of test substance at increasing concentrations is added, and fluorescence values are recorded for 4 min. Next, 10 uL of acetylcholine is added (final concentration calculated so as to achieve 20% of the maximum acetycholine response), and the fluorescence reading is continued for 3.5 min. In some cases, a third addition of acetylcholine (final concentration calculated to achieve 70% of the maximal acetylcholine response) is performed. The resulting dose response curves are fit to a 4 parameter logistic equation and the final result is determined as the inflection point (IP) of the curve
CHO-K1 cells stably transfected with human M4 receptor and chimeric G-protein Gαqi5 are thawed from liquid N2 storage, resuspended in growth medium, plated in black, clear bottom 384 well plates, and incubated 16-20 hours at 37° C., 5% CO2.
On the day of assay, growth medium is removed, the cells are washed 2 times with wash buffer, and cells are incubated in dye loading buffer at 37° C., 5% CO2 for ˜1 h. Following dye loading the cell plates are placed in a FLIPR Tetra instrument and while monitoring dye fluorescence ([…]), 10 uL of test substance at increasing concentrations is added, and fluorescence values are recorded for 4 min. Next, 10 uL of acetylcholine is added (final concentration calculated so as to achieve 20% of the maximum acetycholine response), and the fluorescence reading is continued for 3.5 min. In some cases, a third addition of acetylcholine (final concentration calculated to achieve 70% of the maximal acetylcholine response) is performed.

Row | SMILES | EC50
1 | COc1ccc(OC2CCN(c3nc(CO)nc(Cl)c3C)CC2)cc1 [Example 47, (4-chloro-6-(4-(4-methoxyphenoxy)piperidin-1-yl)-5-methypyrimidin-2-yl)methanol] | 25 nM
2 | COc1ccc(OC2CCN(c3nc(C(=O)NC4CNC4)nc(Cl)c3C)CC2)cn1 [Example 215, N-(azetidin-3-yl)-4-chloro-6-(4-((6-methoxypyridin-3-yl)oxy)piperidin-1-yl)-5-methylpyrimidine-2-carboxamide] | 835 nM
3 | Cc1c(Cl)nc(CO)nc1N1CCC(Oc2ccc3ncnn3c2)CC1 [Example 4, (4-(4-([1,2,4]triazolo[1,5-a]pyridin-6-yloxy)piperidin-1-yl)-6-chloro-5-methylpyrimidin-2-yl)methanol] | 533 nM
4 | COC(=O)c1cc(C)c(N2CCC(Oc3cccc(C#N)c3)CC2)nn1 [Example 58, methyl 6-(4-(3-cyanophenoxy)piperidin-1-yl)-5-methylpyridazine-3-carboxylate] | 64 nM
5 | COc1ccc(OC2CCN(c3nc(C(=O)NC4CCc5ncccc5C4)nc(Cl)c3C)CC2)cn1 (centres unmarked) [Example 218, 4-chloro-6-(4-((6-methoxypyridin-3-yl)oxy)piperidin-1-yl)-5-methyl-N-(5,6,7,8-tetrahydroquinolin-6-yl)pyrimidine-2-carboxamide] | 1050 nM
6 | COc1ccc(O[C@@H]2CCN(c3ncnc(Cl)c3C)C[C@@H]2F)cc1 (relative stereo) [Example 13, 4-chloro-6-((cis)-3-fluoro-4-(4-methoxyphenoxy)piperidin-1-yl)-5-methylpyrimidine] | 110 nM
7 | Cc1c(Cl)nc(CO)nc1N1CCC(Oc2ccc3c(ccn3C)c2)CC1 [Example 29, (4-chloro-5-methyl-6-(4-((1-methyl-1H-indol-5-yl)oxy)piperidin-1-yl)pyrimidin-2-yl)methanol] | 126 nM
8 | COc1ccc(OC2CCN(c3nnc(C(=O)NC4CCc5ccncc5C4)cc3C)CC2)cn1 (centres unmarked) [Example 159, 6-{4-[(6-methoxypyridin-3-yl)oxy]piperidin-1-yl}-5-methyl-N-(5,6,7,8-tetrahydroisoquinolin-7-yl)pyridazine-3-carboxamide] | 293 nM
9 | COc1ccc(OC2CCN(c3nnc(C(=O)N[C@H]4CCc5cc(F)ccc5C4)cc3C)CC2)cn1 [Example 184A, (S)-N-(6-fluoro-1,2,3,4-tetrahydronaphthalen-2-yl)-6-{4-[(6-methoxypyridin-3-yl)oxy]piperidin-1-yl}-5-methylpyridazine-3-carboxamide] | 427 nM
10 | Cc1c(Cl)nc(CO)nc1N1CCC(Oc2ccc3c(c2)C(=O)N(C)CC3)CC1 [Example 41, 7-((1-(6-chloro-2-(hydroxymethyl)-5-methylpyrimidin-4-yl)piperidin-4-yl)oxy)-2-methyl-3,4-dihdyroisoquinolin-1(2H)-one] | 322 nM
11 | COc1ccc(OC2CCN(c3ncnc(-c4cccnc4)c3C)CC2)cn1 [Example 251, 4-(4-((6-methoxypyridin-3-yl)oxy)piperidin-1-yl)-5-methyl-6-(pyridin-3-yl)pyrimidine] | 1440 nM
12 | COc1ccc(OC2CCN(c3ncnc(N4CC5(COC5)C4)c3C)CC2)cn1 [Example 233, 6-(6-(4-((6-methoxypyridin-3-yl)oxy)piperidin-1-yl)-5-methylpyrimidin-4-yl)-2-oxa-6-azaspiro[3.3]heptane] | 2100 nM
13 | Cc1cc(C(=O)N[C@H]2CCc3cccnc3C2)nnc1N1CCC(Oc2cccc(C#N)c2)CC1 [Example 164A, (S)-6-[4-(3-cyanophenoxy)piperidin-1-yl]-5-methyl-N-(5,6,7,8-tetrahydroquinolin-7-yl)pyridazine-3-carboxamide] | 434 nM
14 | COc1ccc(OC2CCN(c3nc(O)nc(Cl)c3C)CC2)cn1 [Example 235, 4-chloro-6-(4-((6-methoxypyridin-3-yl)oxy)piperidin-1-yl)-5-methylpyrimidin-2-ol] | 248 nM
15 | COc1ccc(OC2CCN(c3nnc(C(=O)NCc4ccn[nH]4)cc3C)CC2)cn1 [Example 119, 6-{4-[(6-methoxypyridin-3-yl)oxy]piperidin-1-yl}-5-methyl-N-(1H-pyrazol-5-ylmethyl)pyridazine-3-carboxamide] | 95 nM
16 | Cc1c(Cl)nc(CO)nc1N1CCC(Oc2ccc3c(c2)C(=O)CC3)CC1 [Example 26, 6-((1-(6-chloro-2-(hdyroxymethyl)-5-methylpyrimidin-4-yl)piperidin-4-yl)oxy)-2,3-dihydro-1H-inden-1-one] | 85 nM
17 | COc1ccc(OC2CCN(c3nc(C(=O)NNC(C)C)nc(Cl)c3C)CC2)cn1 [Example 209, 4-chloro-N′-isopropyl-6-(4-((6-methoxypyridin-3-yl)oxy)piperidin-1-yl)-5-methylpyrimidine-2-carbohydrazide] | 533 nM
18 | CONC(=O)c1cc(C)c(N2CCC(Oc3cccc(C#N)c3)CC2)nn1 [Example 132, 6-[4-(3-cyanophenoxy)piperidin-1-yl]-N-methoxy-5-methypyridazine-3-carboxamide] | 139 nM
19 | COc1ncc(OC2CCN(c3nc(CO)nc(Cl)c3C)CC2)cc1Cl [Example 65, (4-chloro-6-(4-((5-chloro-6-methoxypyridin-3-yl)oxy)piperidin-1-yl)-5-methylpyrimidin-2-yl)methanol] | 100 nM
20 | COc1ccc(OC2CCN(c3nc(C(=O)NC4CCc5ccncc5C4)nc(Cl)c3C)CC2)cn1 (centres unmarked) [Example 216, 4-chloro-6-(4-((6-methoxypyridin-3-yl)oxy)piperidin-1-yl)-5-methyl-N-(5,6,7,8-tetrahydroisoquinolin-7-yl)pyrimidine-2-carboxamide] | 997 nM
21 | COc1ccc(OC2CCN(c3nc(OC)ncc3C#N)CC2)cc1 [Example 18, 2-methoxy-4-(4-(4-methoxyphenoxy)piperidin-1-yl)pyrimidine-5-carbonitrile] | 1890 nM
22 | COc1ccc(OC2CCN(c3nnc(C(=O)N[C@@H]4CCc5ncccc5C4)cc3C)CC2)cn1 [Example 141A, (R)-6-(4-((6-methoxypyridin-3-yl)oxy)piperidin-1-yl)-5-methyl-N-(5,6,7,8-tetrahydroquinolin-6-yl)pyridazine-3-carboxamide] | 57 nM
23 | COc1ccc(O[C@@H]2CCN(c3nnc(C(=O)NCc4ccncc4)cc3C)C[C@@H]2F)cn1 [Example 125, 6-{(3S,4R)-3-fluoro-4-[(6-methoxypyridin-3-yl)oxy]piperidin-1-yl}-5-methyl-N-(pyridin-4-ylmethyl)pyridazine-3-carboxamide] | 102 nM
24 | COc1ccc(OC2CCN(c3nnc(C(=O)NCc4ccncc4)cc3C)CC2)cn1 [Example 109, 6-{4-[(6-methoxypyridin-3-yl)oxy]piperidin-1-yl}-5-methyl-N-(pyridin-4-ylmethyl)pyridazine-3-carboxamide] | 34 nM
25 | COc1ccc(OC2CCN(c3ncnc(Cl)c3C)CC2)cc1 [Example 57, 4-chloro-6-(4-(4-methoxyphenoxy)piperidin-1-yl)-5-methypyrimidine] | 61 nM
26 | COC(=O)c1cc(C)c(N2CCC(Oc3ccc(OC)cc3)CC2)nn1 [Example 10, methyl 6-(4-(4-methoxyphenoxy)piperidin-1-yl)-5-methylpyridazine-3-carboxylate] | 82 nM
27 | Cc1c(-c2ccc3c(c2)OCCO3)ncnc1N1CCC(Oc2cccc(C#N)c2)CC1 [Example 250, 3-((1-(6-(2,3-dihydrobenzo[b][1,4]dioxin-6-yl)-5-methylpyrimidin-4-yl)piperidin-4-yl)oxy)benzonitrile] | 1130 nM
28 | COC(=O)Cc1c(Cl)ncnc1N1CCC(Oc2ccc(OC)cc2)CC1 [Example 17, methyl 2-(4-chloro-6-(4-(4-methoxyphenoxy)piperidin-1-yl)pyrimidin-5-yl)acetate] | 2670 nM
29 | Cc1cc(C(=O)NC2CCc3cccnc3C2)nnc1N1CCC(OCC2CC2)CC1 (centres unmarked) [Example 144, 6-[4-(cyclopropylmethoxy)piperidin-1-yl]-5-methyl-N-(5,6,7,8-tetrahydroquinolin-7-yl)pyridazine-3-carboxamide] | 193 nM
